Data from patent US20240150424A1, “DIRECTED CHEMICAL CONJUGATE OF GLUCAGON-LIKE PEPTIDE-2 MUTANT, AND USE THEREOF” (PEG-BIO BIOPHARM CO.,LTD.(CHONGQING), priority 2021, published 2024).
Starred links: 1 amine or outer side, 2 acyl side, 3 side chain; linkers in the order of their positions; H or OH if unused. Non-standard residues stand in square brackets, D forms with d. Residues, ends and D or L forms follow the SMILES beside them. Groups on a side chain read outwards from the residue. No end group written: not given here. *: point of attachment. C18 diacid = O=C(O)CCCCCCCCCCCCCCCCC(=O)*; γGlu = O=C(O)[C@H](CCC(=O)[*:2])N[*:1]; AEEA = NCCOCCOCC(=O)O; Aib = CC(C)(N)C(=O)O

Legend:
[1] = Pharmacokinetic study in rats (ELISA); assay type: in vivo, SD rats
Protocol: 10 adult SD rats weighing 200-300 g were equally divided into 2 groups, 5 rats each group. PF01 and PF04 were administered subcutaneously at a single dose of 3 mg/Kg, respectively. Serum samples of all rats were collected before administration and 8 h, 24 h, 48 h, 72 h and 96 h after administration, and plasma concentrations were determined by ELISA.

[2] = Pharmacokinetic study in Cynomolgus macaques (LC-MS/MS, NCA); assay type: in vivo
Protocol: 4 adult Cynomolgus macaques, half males and half females, were used. PF01 was administered by subcutaneous injection at a single dose of 0.05 mg/Kg. Blood samples were collected before administration and 4 h, 8 h, 12 h, 24 h, 48 h, 72 h, 96 h, 120 h, 192 h and 288 h after administration. The concentrations of PF01 in the samples were determined by LC-MS/MS. The plasma concentration data were analyzed using WinNonlin, a pharmacokinetic data analysis software. […] The t1/2, Cmax, Tmax, AUC, Cl and Vd were calculated using a non-compartmental model (NCA).

[3] = cited from earlier work
[4] = tested on: 5-FU-induced diarrhea and intestinal mucosa injury model; test: Diarrhea and intestinal mucosa injury model caused by 5-FU in rats; assay type: in vivo, SD rats; conditions: for Number of animals with diarrhea (denominator): 10 rats each group
Protocol: Forty adult SD rats weighing 200 to 300 g were equally divided into 4 groups, 10 rats each group. A Model group was subcutaneously administered with the placebo once a day for 9 days, a Ted group was subcutaneously administered at 1 mg/Kg once a day for 9 days, and a PF01 group and a PF04 group were subcutaneously administered at 3 mg/Kg once every three days for a total of 3 times. All rats were intraperitoneally injected with 5-FU at 50 mg/Kg once a day on the 4th day to the 6th day. Diarrhea and body weight changes in rats were recorded every day after the first administration of 5-FU. On the 10th day, body weight was weighed, blood was collected, and jejunum was taken for case sections. Diarrhea was identified based on scores, with 0 indicating no diarrhea, 1 indicating mild diarrhea with feces adhering to the anus, 2 indicating moderate diarrhea with feces adhering to the hind legs and tail, 3 indicating severe diarrhea with feces adhering to the front legs and abdomen, and 4 indicating death. In Table 6, the numerator represents the diarrhea score, and the denominator represents the number of animals with diarrhea.

[5] = tested on: small intestine hyperplasia in minor mice; test: Test on promoting small intestinal hyperplasia in minor Kunming mice; assay type: in vivo
Protocol: Forty minor Kunming mice weighing 10 to 20 g were equally divided into […], 10 mice each group. The control group was subcutaneously administered with the placebo once a day for 9 days, the Ted group was subcutaneously administered at 1 mg/Kg once a day for 9 days, and the PF01 group and the PF04 group were subcutaneously administered at 3 mg/Kg once every three days for a total of 3 times. All experimental animals were weighed before administration. On the 10th day after administration, the body weight was weighed, blood was collected, and small intestine length and weight were determined.

[6] = cited from earlier work; remark: listed apart in the source
GLP-2R = molecular target: T1, GLP-2R (Homo sapiens, UniProt O95838); test: In vitro activity (cAMP) assay of glucagon-like peptide-2 mutants in HEK-293-GLP-2R cells; assay type: cell-based; conditions: for in vitro activities compared with natural human glucagon-like peptide-2: summary statement
T1 construct: expressed in transfected cells; host or cells: HEK-293 cells, transfected and screened by Chongqing Paijin Biotechnology Co. Ltd. The receptor gene was constructed by Shanghai Shengbo Biomedical Technology Co. Ltd
T1 sequence (O95838 1-553): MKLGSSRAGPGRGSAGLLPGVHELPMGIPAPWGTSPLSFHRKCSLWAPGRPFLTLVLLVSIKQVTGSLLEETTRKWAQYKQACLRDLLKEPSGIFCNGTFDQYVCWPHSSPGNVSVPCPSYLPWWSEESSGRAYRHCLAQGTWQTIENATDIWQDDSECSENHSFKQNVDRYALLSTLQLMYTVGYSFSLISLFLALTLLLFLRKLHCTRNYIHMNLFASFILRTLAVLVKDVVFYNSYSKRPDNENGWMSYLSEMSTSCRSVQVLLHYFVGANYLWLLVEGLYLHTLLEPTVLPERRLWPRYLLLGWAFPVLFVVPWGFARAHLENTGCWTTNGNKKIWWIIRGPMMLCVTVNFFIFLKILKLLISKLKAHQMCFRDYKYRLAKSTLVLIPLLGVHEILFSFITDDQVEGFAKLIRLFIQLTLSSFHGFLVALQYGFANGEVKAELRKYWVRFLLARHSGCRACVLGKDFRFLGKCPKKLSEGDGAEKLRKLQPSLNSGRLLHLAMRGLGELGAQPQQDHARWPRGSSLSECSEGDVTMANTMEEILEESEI
Protocol: HEK-293-GLP-2R cells (HEK-293 cells were purchased from National Collection of Authenticated Cell Cultures, GLP-2R receptor gene sequence was recombinantly constructed by Shanghai Shengbo Biomedical Technology Co. Ltd., and HEK-293-GLP-2R cells were obtained by transfection and screening by Chongqing Paijin Biotechnology Co. Ltd.) were used to determine the in vitro activities of glucagon-like peptide-2 mutants. […] The cells were incubated at 37° C., 5% CO2 for 15 minutes, and then added with a cell lysis buffer. The cell lysates were extracted, and the OD value of cAMP was determined using a cAMP assay kit (RD company).

[7] = cynomolgus monkey, in vivo, Cynomolgus macaques, sc single dose of 0.05 mg/Kg
[8] = 24 h after the administration of 5-FU
[9] = 48 h after the administration of 5-FU
[10] = 72 h after the administration of 5-FU
[11] = 96 h after the administration of 5-FU
[12] = 10th day, Ted 1 mg/Kg sc once a day for 9 days, PF01/PF04 3 mg/Kg sc once every three days, 3 times

CC[C@H](C)[C@H](NC(=O)[C@H](Cc1ccccc1)NC(=O)[C@H](CC(=O)O)NC(=O)[C@H](CCCNC(=N)N)NC(=O)[C@H](C)NC(=O)[C@H](C)NC(=O)[C@H](CC(C)C)NC(=O)[C@H](CC(N)=O)NC(=O)[C@H](CC(=O)O)NC(=O)[C@H](CC(C)C)NC(=O)[C@@H](NC(=O)[C@@H](NC(=O)[C@H](CC(N)=O)NC(=O)[C@H](CCSC)NC(=O)[C@H](CCC(=O)O)NC(=O)[C@H](CC(=O)O)NC(=O)[C@H](CO)NC(=O)[C@H](Cc1ccccc1)NC(=O)[C@H](CO)NC(=O)CNC(=O)[C@H](CC(=O)O)NC(=O)CNC(=O)[C@@H](N)Cc1c[nH]cn1)[C@@H](C)O)[C@@H](C)CC)C(=O)N[C@@H](CC(N)=O)C(=O)N[C@@H](Cc1c[nH]c2ccccc12)C(=O)N[C@@H](CC(C)C)C(=O)N[C@H](C(=O)N[C@@H](CCC(N)=O)C(=O)N[C@H](C(=O)N[C@@H](CCCNC(=N)N)C(=O)N[C@H](C(=O)N[C@H](C(=O)N[C@@H](CC(=O)O)C(=O)NCC(=O)NCC(=O)NCC(=O)NCC(=O)N[C@@H](CO)C(=O)N[C@@H](CCCCNC(=O)COCCOCCNC(=O)COCCOCCNC(=O)CC[C@H](NC(=O)CCCCCCCCCCCCCCCCC(=O)O)C(=O)O)C(=O)O)[C@@H](C)O)[C@@H](C)CC)[C@@H](C)O)[C@@H](C)CC [PF01] (H-HGDGSFSDEMNTILDNLAARDFINWLIQTRITDGGGGSK([AEEA-AEEA-γGlu-C18 diacid])-OH)
Cmax ([1]; rat, in vivo, rats, sc single dose of 3 mg/Kg): 67500 ng/mL
half-life ([1]; rat, in vivo, rats, sc single dose of 3 mg/Kg, read-out: T1/2 (converted)): 20.3 h
half-life ([1]; rat, in vivo, summary statement in description, read-out: in vivo half-life in rats (converted)): 21 h
Tmax ([1]; rats, sc single dose of 3 mg/Kg): basically consistent with that of PF04
in vivo half-life, times longer than that of the natural hGLP-2 ([2]; based on T1/2 in Cynomolgus macaques): approximately 100 times
AUC [2, 7]: 21700 ng·h/mL
Cmax [2, 7]: 459 ng/mL
Tmax [2, 7]: 12 h
half-life ([2]; cynomolgus monkey, in vivo, Cynomolgus macaques, sc single dose of 0.05 mg/Kg, read-out: T1/2 (average) (converted)): 30.9 h
half-life ([2]; cynomolgus monkey, in vivo, summary statement in description, read-out: in vivo half-life in cynomolgus monkeys (converted)): 30 h

CC[C@H](C)[C@H](NC(=O)[C@H](Cc1ccccc1)NC(=O)[C@H](CC(=O)O)NC(=O)[C@H](CCCNC(=N)N)NC(=O)[C@H](C)NC(=O)[C@H](C)NC(=O)[C@H](CC(C)C)NC(=O)[C@H](CC(N)=O)NC(=O)[C@H](CC(=O)O)NC(=O)[C@H](CC(C)C)NC(=O)[C@@H](NC(=O)[C@@H](NC(=O)[C@H](CC(N)=O)NC(=O)[C@H](CCSC)NC(=O)[C@H](CCC(=O)O)NC(=O)[C@H](CC(=O)O)NC(=O)[C@H](CO)NC(=O)[C@H](Cc1ccccc1)NC(=O)[C@H](CO)NC(=O)CNC(=O)[C@H](CC(=O)O)NC(=O)CNC(=O)[C@@H](N)Cc1c[nH]cn1)[C@@H](C)O)[C@@H](C)CC)C(=O)N[C@@H](CC(N)=O)C(=O)N[C@@H](Cc1c[nH]c2ccccc12)C(=O)N[C@@H](CC(C)C)C(=O)N[C@H](C(=O)N[C@@H](CCC(N)=O)C(=O)N[C@H](C(=O)N[C@@H](CCCCN)C(=O)N[C@H](C(=O)N[C@H](C(=O)N[C@@H](CC(=O)O)C(=O)O)[C@@H](C)O)[C@@H](C)CC)[C@@H](C)O)[C@@H](C)CC [Teduglutide]
in vivo half-life in rats ([3]; rats): 0.5 h
Diarrhea score (numerator) [4, 8]: 0/0
Number of animals with diarrhea (denominator) [4, 8]: 0/0
Diarrhea score (numerator) [4, 9]: 4/4
Number of animals with diarrhea (denominator) [4, 9]: 4/4
Diarrhea score (numerator) [4, 10]: 4
Number of animals with diarrhea (denominator) [4, 10]: 3
Diarrhea score (numerator) [4, 11]: 3/3
Number of animals with diarrhea (denominator) [4, 11]: 3/3
Rank of citrulline (CIT) content between groups ([4]; FIG. 7, before chemotherapy, 48 h and 144 h after chemotherapy): citrulline content in the PF01 group>that in the PF04 group>that in the Ted group>that in the Model group
Case sections of jejunum: height of villi and number of crypt cells, rank of groups ([4]; FIG. 8, 10th day): the PF01 group>the PF04 group>the Ted group>the control group
Serum citrulline content 96 h after the first administration of 5-FU ([4]; Table 5, 96 h): 16.50 µg/mL
Serum citrulline content 48 h after the administration of 5-FU ([4]; Table 7, 48 h): 2.04 µg/mL
Serum citrulline content 96 h after the administration of 5-FU ([4]; Table 7, 96 h): 3.53 µg/mL
Serum citrulline content 144 h after the administration of 5-FU ([4]; Table 7, 144 h): 10.37 µg/mL
Serum citrulline content before the administration of 5-FU ([4]; Table 7, before 5-FU): 21.74 µg/mL
Body weight before the first administration of 5-FU ([4]; Ted 1 mg/Kg sc daily 9 days, PF01/PF04 3 mg/Kg sc every three days x3, 5-FU 50 mg/Kg ip day 4-6): 272.46 g
Body weight 24 h after the first administration of 5-FU ([4]; same regimen, 24 h): 274.36 g
Body weight 48 h after the first administration of 5-FU ([4]; same regimen, 48 h): 257.94 g
Body weight 72 h after the first administration of 5-FU ([4]; same regimen, 72 h): 260.95 g
Body weight 96 h after the first administration of 5-FU ([4]; same regimen, 96 h): 275.43 g
Body weight of mice at the end of the experiment [5, 12]: 18.06 ± 0.49 g
Serum citrulline content [5, 12]: 14.47 µg/mL
Small intestine length [5, 12]: 37.4 cm
Small intestine weight [5, 12]: 1.75 g
Body weight of mice before administration ([5]; baseline, before administration): 13.32 ± 0.49 g
Comparison of groups in mice body weight, serum citrulline, small intestine length and small intestine weight ([5]; text summary of Table 4): superior to the control group
half-life in vivo in humans [6]: 2 h

GLP-2(3-33): hydrolyzed, inactive GLP-2(3-33) formed by dipeptidyl peptidase IV (DGSFSDEMNTILDNLAARDFINWLIQTKITD; Glucagon-like peptide 2; UniProt P01275 148-178, looked up, fragment)
half-life in vivo ([3]; cited reference on catabolism in rats): 0.45 h

PT01: glucagon-like peptide-2 mutant, SEQ ID NO: 1: HGDGSFSDEMNTILDNLAARDFINWLIQTRITDGGGGSK
in vitro activities compared with natural human glucagon-like peptide-2 (GLP-2R): consistent with the natural human glucagon-like peptide-2

PT02: glucagon-like peptide-2 mutant, SEQ ID NO: 2: HAibDGSFSDEMNTILDNLAARDFINWLIQTRITDGGGGSK (H[Aib]DGSFSDEMNTILDNLAARDFINWLIQTRITDGGGGSK)
in vitro activities compared with natural human glucagon-like peptide-2 (GLP-2R): consistent with the natural human glucagon-like peptide-2
in vitro cell viability relative to that of Teduglutide (GLP-2R; text summary of Table 3, Teduglutide as a standard): comparable to that of Teduglutide

PT03: glucagon-like peptide-2 mutant, SEQ ID NO: 3: HGDGSFSDEMNTILDNLAARDFINWLIQTRITDGGGGSGGGGSK
in vitro activities compared with natural human glucagon-like peptide-2 (GLP-2R): consistent with the natural human glucagon-like peptide-2

PT04: glucagon-like peptide-2 mutant, SEQ ID NO: 4: HGDGSFSDEMNTILDNLAARDFINWLIQTHITDGGGGSK
in vitro activities compared with natural human glucagon-like peptide-2 (GLP-2R): consistent with the natural human glucagon-like peptide-2

hGLP-2: human glucagon-like peptide-2, SEQ ID NO: 9: HADGSFSDEMNTILDNLAARDFINWLIQTKITD
half-life in vivo in humans [6]: 0.12 h
